From the NIST ThermoML archive (doi:10.1016/j.fluid.2019.01.025)
± gives the expanded uncertainty stated by the source.

Assay: xn = mol fraction of the nth substance listed
Settings: for viscosity / mass density: 91.2 kPa, Liquid; for viscosity: Concentric cylinders viscometry; for mass density: Vibrating tube method; for surface tension liquid-gas: Ring tensiometer

C[C@H](O)C(=O)O [(S)-2-hydroxypropanoic acid] + C[N+](C)(C)CCO.[Cl-]
x2 = 0.5
Settings | mass density [kg/m3] | surface tension liquid-gas [mN/m] | viscosity [mPa·s]
293 K | 1150 ± 10 | – | 309 ± 12
298 K | 1150 ± 10 | 42.87 ± 6.2 | –
303 K | 1150 ± 10 | – | 151 ± 6
308 K | 1140 ± 10 | – | –
313 K | 1140 ± 10 | – | 101 ± 3
318 K | 1140 ± 10 | – | –
323 K | 1130 ± 10 | – | 59 ± 2
333 K | – | – | 35 ± 1
343 K | – | – | 34 ± 1
353 K | – | – | 25 ± 1

C[C@H](O)C(=O)O [(S)-2-hydroxypropanoic acid] + O=C[C@H](O)[C@@H](O)[C@H](O)[C@H](O)CO
x1 = 0.833
Settings | mass density [kg/m3] | surface tension liquid-gas [mN/m] | viscosity [mPa·s]
293 K | 1280 ± 10 | – | 335 ± 14
298 K | 1270 ± 10 | 37.42 ± 2 | –
303 K | 1270 ± 10 | – | 161 ± 8
308 K | 1270 ± 10 | – | –
313 K | 1260 ± 10 | – | 79 ± 4
318 K | 1260 ± 10 | – | –
323 K | 1250 ± 10 | – | 34 ± 2
333 K | – | – | 18 ± 1
343 K | – | – | 16 ± 1
353 K | – | – | 13 ± 1
